Test results: patent publication EP0583566A2, “Process for the preparation of glycine-conjugated bile acids and relative pharmaceutical compositions useful for treating hepatic insufficiency” (ERREGIERRE INDUSTRIA CHIMICA Spa, priority 1992, dated 1994)
Read-outs that look alike come from different tables or passages of the source.

Assays:
[1] = in vivo
Text: (§1) GUDCA is well absorbed by the intestine through a double mechanism, i.e. active and passive, transported to the liver by the portal system and uptaken. It passes rapidly through the liver without being metabolized and is then secreted in the bile with high transport rate and efficiency.

[2] = system: hepatotoxic effects of TUDCA; assay: hepatoprotective activity against bile acid hepatotoxicity on co-administration; type: in vivo; conditions: 0.8 µmol/min/100g
Text: Normal values of alkaline phosphatase (ALP) and biliary lactate dehydrogenase (LDH) as well as of bile flow and calcium secretion are thereby obtained.

[3] = critical micellar concentration (detergent capacity); type: physicochemical
uptake by the liver = type: in vivo
Text: as §1, with “efficiency. UDCA is absorbed only through a passive mechanism and is uptaken by liver at 50% (GUDCA at 80%).” for “efficiency.”

Structure (SMILES) | pKa (pKa) | Fa [1] [%] | prevention of hepatotoxic effects ([2]; administered with TUDCA at the same dose) | alkaline phosphatase (ALP) and biliary lactate dehydrogenase (LDH) ([2]; for GUDCA also bile flow and calcium secretion normal) | critical micellar concentration [3] [µM] | logP (physchem) | hepatic extraction ratio (uptake by the liver; in vivo) | pH values of the intestine contents at which absorbed [1] | hepatic extraction ratio (uptake by the liver; liver, read-out: uptaken by liver)
C[C@H](CCC(=O)NCCS(=O)(=O)O)[C@H]1CC[C@H]2[C@@H]3[C@@H](O)C[C@@H]4C[C@H](O)CC[C@]4(C)[C@H]3CC[C@]12C [TUDCA, tauroursodeoxycholic acid] | ~1 | – | – | – | – | – | – | – | –
C[C@H](CCC(=O)NCC(=O)O)[C@H]1CC[C@H]2[C@@H]3[C@@H](O)C[C@@H]4C[C@H](O)CC[C@]4(C)[C@H]3CC[C@]12C [GUDCA, glycoursodeoxycholic acid] | – | 100 | can prevent the hepatotoxic effects | Normal values | 12 | 2 | 0.8 | – | –
C[C@H](CCC(=O)O)[C@H]1CC[C@H]2[C@@H]3[C@@H](O)C[C@@H]4C[C@H](O)CC[C@]4(C)[C@H]3CC[C@]12C [UDCA, ursodeoxycholic acid] | – | 50 | – | – | – | – | – | 8.5 | 0.5
